Results: ChEMBL document CHEMBL4680214, “Fluorinated derivatives of 2-phenyl-3-hydroxy-4(1H)-quinolinone as tubulin polymerization inhibitors” (Eur J Med Chem, 2020)
Activity calls are given as the source filed them. No cut-off for these calls is given here.

What was measured:
CCRF-CEM [1] = test: Cell cycle arrest in human CCRF-CEM cells assessed as increase in cyclin B1 expression at 2 times IC50 measured after 6 to 12 hrs by Western blot analysis; assay type: functional, cell-based; settings: time 6-12 hrs
CCRF-CEM [2] = test: Cell cycle arrest in human CCRF-CEM cells assessed as accumulation at S phase at IC50 measured after 24 hrs by propidium iodide staining based flow cytometry (reference value: 42.2%); assay type: functional
CCRF-CEM [3] = test: Cell cycle arrest in human CCRF-CEM cells assessed as polyploid cell population at 2 times IC50 measured after 24 hrs by propidium iodide staining based flow cytometry (reference value: 11.3%); assay type: functional
CCRF-CEM [4] = test: Cell cycle arrest in human CCRF-CEM cells assessed as accumulation at G2/M phase at 5 times IC50 measured after 24 hrs by propidium iodide staining based flow cytometry (reference value: 22.6%); assay type: functional
HCT-116 [5] = test: Cell cycle arrest in human HCT-116 cells assessed as BrdU incorporation at IC50 measured after 24 hrs by propidium iodide/immunostaining based flow cytometry (reference value: 48.6%); assay type: functional
HCT-116 [6] = test: Cell cycle arrest in human HCT-116 cells assessed as accumulation at sub-G1 phase at IC50 measured after 24 hrs by propidium iodide staining based flow cytometry (reference value: 1.6%); assay type: functional
HCT-116 [7] = test: Cell cycle arrest in human HCT-116 cells assessed as phosphorylation of histone H3 at Ser10 at IC50 measured after 24 hrs by propidium iodide staining based flow cytometry (reference value: 3.4%); assay type: functional
CCRF-CEM [8] = test: Cell cycle arrest in human CCRF-CEM cells assessed as BrU incorporation at IC50 measured after 24 hrs by propidium iodide/immunostaining based flow cytometry (reference value: 52.2%); assay type: functional
HCT-116 [9] = test: Cell cycle arrest in human HCT-116 cells assessed as phosphorylation of histone H3 at Ser10 at 5 times IC50 measured after 24 hrs by propidium iodide staining based flow cytometry (reference value: 3.4%); assay type: functional
HCT-116 [10] = test: Cytotoxicity against p53-deficient human HCT-116 cells incubated for 72 hrs by MTS assay; assay type: functional, cell-based; settings: HCT-116, 72 h
CCRF-CEM [11] = test: Cell cycle arrest in human CCRF-CEM cells assessed as polyploid cell population at 2 times IC50 measured after 6 hrs by propidium iodide staining based flow cytometry (reference value: 11.3%); assay type: functional
HCT-116 [12] = test: Cell cycle arrest in human HCT-116 cells assessed as accumulation at G0/G1 phase at 5 times IC50 measured after 24 hrs by propidium iodide staining based flow cytometry (reference value: 35.3%); assay type: functional

## O=c1c(O)c(-c2ccccc2)[nH]c2cc(F)c(Sc3ccccc3)cc12
CCRF-CEM [1]
  Activity: Active
CCRF-CEM [2]
  Activity: 56.7%
CCRF-CEM [3]
  Activity: 16.6%
CCRF-CEM [4]
  Activity: 20.2%
HCT-116 [5]
  Activity: 42.1%
HCT-116 [6]
  Activity: 3.4%
HCT-116 [7]
  Activity: 6.2%
CCRF-CEM [8]
  Activity: 67.4%
HCT-116 [9]
  Activity: 15.5%
HCT-116 [10]
  IC50: 4 µM
CCRF-CEM [11]
  Activity: 10.5%
HCT-116 [12]
  Activity: 2.7%
